# Source: US8426403B2, “Gamma secretase modulators” (priority 2007, dated 2013)
# Tested on: Aβ42
# Assay: Secretase Reaction and Aβ Analysis in Whole Cells (total Aβ, Aβ40, Aβ42 by ECL sandwich immunoassay)
# Format: cell-based
# Conditions: HEK293 cells overexpressing APP with Swedish and London mutations
# Description: Secretase Reaction and Aβ Analysis in Whole Cells: HEK293 cells overexpressing APP with Swedish and London mutations were treated with the specified compounds for 5 hour at 37° C. in […] of DMEM medium containing 10% fetal bovine serum. At the end of the incubation, total Aβ, Aβ40 and Aβ42 were measured using electrochemiluminescence (ECL) based sandwich immunoassays. Total Aβ was determined using a pair of antibodies TAG-WO2 and biotin-4G8, Aβ40 was identified with antibody pairs TAG-G2-10 and biotin-4G8, while Aβ42 was identified with TAG-G2-11 and biotin-4G8. The ECL signal was measured using Sector Imager 2400 (Meso Scale Discovery).
smiles,measurement,setting,value
COc1cc(/C=C/C2=NC(=O)C(C)(c3ccc(F)cc3)N2)ccc1-n1cnc(C)c1 (centres unmarked) [Compound G4],Abtotal/Ab42 selectivity,total Aβ versus Aβ42,11 fold
same,IC50,"Homo sapiens, 5 hour at 37° C., ECL sandwich immunoassay, read-out: Ab42 IC50",1110 nM
